Results on two compounds are retold here after patent US7273863B1, “Benzophenones as inhibitors of reverse transcriptase” (SmithKline Beecham Corporation, priority 1999, dated 2007).

For this assay, the system named is HIV-2. The assay is described as follows: MT4 cell assay, antiviral HIV activity (propidium iodide). It counts as cell-based. The conditions noted are these: Human immunodeficiency virus 2, Virus Type HIV-2, read-out: IC50 (nM) Range.

The term IC50 denotes the concentration that gives 50% inhibition. For `Cc1cc(S(N)(=O)=O)ccc1NC(=O)COc1ccc(Cl)cc1C(=O)c1cc(F)cc(F)c1` [Compound 62], the IC50 lay within 1000 to 3000 nM. Next, `Cc1cc(S(N)(=O)=O)ccc1NC(=O)COc1ccc(Cl)cc1C(=O)c1cccc(C#N)c1` [Compound 448]: 1000 to 3000 nM.
